According to US7816386B2, “Cinnamic, phenylpropiolic and phenylpropanoic acid derivatives useful as anti-tumor agents” (Sigma-Tau Industrie Farmaceutiche Riunite S.p.A., priority 2005, dated 2010):
Structures can show the parent of a compound that is named as a salt. Where two headings read alike, the source gives them in different places.

Key:
[1] = tested on: NB4 human promyelocytic leukaemia; assay: Cytotoxicity on NB4 tumour cells (sulphorodamine B); type: cell-based
Method: (§1) To test the effects of the compounds on cell growth, NB4 human promyelocytic leukaemia, NCI-H460 non-small cell carcinoma cells and HCT-116 human colon carcinoma cells were used. NB4 and NCI-H460 tumour cells were grown RPMI 1640 containing 10% fetal bovine serum (GIBCO), whereas HCT-116 tumour cells were grown in McCoy's 5A containing 10% fetal bovine serum (GIBCO).
(§2) Tumour cells were seeded in 96-well tissue culture plates (Corning) at approximately 10% confluence and were allowed to attach and recover for at least 24 h. […] The plates were incubated for 24 h at 37° C. At the end of the treatment, for NB4 tumour cells in suspension, the procedure was performed as follows: medium culture was removed by centrifugation of the plates at 1600×g for 10 min and the surnatant was removed. 250 μl PBS were added, then the plates were centrifuged at 1600×g for 10 min, the surnatant was removed. 200 μl/well of medium culture RPMI 1640 containing 10% FCS were added and the plates were incubated at 37° C. for other 48 h. The plates were centrifuged again at 1600×g for 10 min, the medium culture was removed and 200 μl PBS and 50 μl of cold 80% TCA were added. The plates were incubated on ice for at least 1 h. TCA was removed, the plates were washed 3 times for immersion in distilled-water and dried on paper and at 40° C. for 5 min. Then 200 μl of 0.4% sulphorodamine B in 1% acetic acid were added. The plates were incubated at room temperature for other 30 min. Sulphorodamine B was removed, the plates were washed for immersion in 1% acetic acid for 3 times, then they were dried on paper and at 40° C. for 5 min. Then 200 μl Tris 10 mM were added, the plates were kept under stirring for 20 min. The survival cell was determined as optical density by a Multiskan spectrofluorimeter at 540 nm. For the tumour cells in adhesion (NCI-H460 and HCT-116), the procedure was as above mentioned, except that at the end of the treatment, the plates were washed by remotion of the surnatant and addition of PBS 3 times without centrifugation. Also the last day of the assay, the surnatant was removed without centrifugation.
(§3) The amount of cells killed was calculated as the percentage decrease in sulphorodamine B binding compared with control cultures.

[2] = tested on: NCI-H460 non-small cell carcinoma cells; assay: Cytotoxicity on NCI-H460 tumour cells (sulphorodamine B); type: cell-based, human; conditions: for IC50: 24 h treatment, then other 48 h in drug-free medium, sulphorodamine B; for cytotoxic effect on survival of NCI-H460 tumour cells (in words): comparison among the compounds
Method: as §1, §2, §3

[3] = tested on: HCT-116 human colon carcinoma cells; assay: Cytotoxicity on HCT-116 tumour cells (sulphorodamine B); type: cell-based; conditions: read-out: IC50 ± SD, HCT-116 (concentration which inhibits the 50% of cell survival), 24 h treatment, then other 48 h in drug-free medium
Method: as §1, §2, §3

[4] = Homo sapiens, read-out: IC50 ± SD, NB4 (concentration which inhibits the 50% of cell survival), NB4 tumour cells, 24 h treatment, then other 48 h in drug-free medium
[5] = read-out: IC50 ± SD, NB4 (concentration which inhibits the 50% of cell survival), NB4 tumour cells, 24 h treatment, then other 48 h in drug-free medium
[6] = Homo sapiens, NCI-H460, read-out: IC50 ± SD, NCI-H460 (concentration which inhibits the 50% of cell survival), NCI-H460 tumour cells

| Compound | IC50 [1, 4] | IC50 [1, 5] | IC50 [2, 6] | IC50 ([3]; Homo sapiens) | cytotoxic effect on survival of NCI-H460 tumour cells (in words) ([2]; NCI-H460 tumour cells) | IC50 ([2]; read-out: IC50 ± SD, NCI-H460 (concentration which inhibits the 50% of cell survival), NCI-H460 tumour cells) | IC50 [3] | IC50 ([1]; read-out: IC50 ± SD, NB4 (concentration which inhibits the 50% of cell survival), NB4 tumour cells, 24 h treatment, then other 48 h in drug-free medium, hydrochloride) |
| --- | --- | --- | --- | --- | --- | --- | --- | --- |
| O=C(/C=C/c1ccc(C=NOCc2ccccc2)cc1)NO [ST2840, (2E)-3-(4-{[(benzyloxy)imino]methyl}phenyl)-N-hydroxyacrylamide] | 600 to 800 nM | 600 ± 6 nM | 1600 ± 100 nM | 2800 ± 200 nM | – | – | – | – |
| O=C(/C=C/c1ccc2[nH]ccc2c1)NO [ST2880, (2E)-N-hydroxy-3-(1H-indol-5-yl)acrylamide] | 1400 to 2900 nM | 1800 ± 20 nM | 5900 ± 500 nM | 2700 ± 300 nM | minor cytotoxic effect | – | – | – |
| O=C(/C=C/c1ccc(C=NNC(=O)c2ccc(Cl)cc2)cc1)NO [ST2888, (2E)-N-hydroxy-3-(4-{[(4-chlorobenzoyl)hydrazono]-methyl}phenyl)acrylamide] | 600 to 800 nM | 800 ± 20 nM | 3400 ± 300 nM | 1800 ± 100 nM | – | – | – | – |
| O=C(/C=C/c1ccc(C=NO)cc1)NO [ST2983, (2E)-N-hydroxy-3-{4-[(hydroxyimino)methyl]phenyl}acrylamide] | – | – | 6300 ± 400 nM | 3500 ± 300 nM | minor cytotoxic effect | – | – | – |
| C=CCON=Cc1ccc(/C=C/C(=O)NO)cc1 [ST2984, (2E)-N-hydroxy-3-(4-{[(allyloxy)imino]methyl}phenyl)acrylamide] | 1400 to 2900 nM | 1400 ± 70 nM | 3200 ± 90 nM | 3500 ± 70 nM | – | – | – | – |
| O=C(/C=C/c1ccc(C=NOc2ccccc2)cc1)NO [ST2985, (2E)-N-hydroxy-3-{4-[(phenoxyimino)methyl]phenyl}acrylamide] | 1400 to 2900 nM | 2700 ± 90 nM | 5100 ± 300 nM | 3700 ± 400 nM | minor cytotoxic effect | – | – | – |
| O=C(/C=C/c1ccc(C=NOCc2c(F)c(F)c(F)c(F)c2F)cc1)NO [ST2986, (2E)-N-hydroxy-3-[4-({[(pentafluorobenzyl)oxy]imino}-methyl)phenyl]-acryl-amide] | – | 700 ± 70 nM | – | – | – | 1600 ± 70 nM | 2400 ± 100 nM | – |
| O=C(/C=C/c1ccc(C=NOCc2ccc([N+](=O)[O-])cc2)cc1)NO [ST2987, (2E)-N-hydroxy-3-[4-({[(4-nitrobenzyl)oxy]imino}-methyl)phenyl]acrylamide] | 600 to 800 nM | 800 ± 10 nM | 2600 ± 100 nM | 1200 ± 200 nM | – | – | – | – |
| COC(=O)c1ccc(CON=Cc2ccc(/C=C/C(=O)NO)cc2)cc1 [ST3049, (2E)-N-hydroxy-3-[4-({[(4-methoxycarbonylbenzyl)oxy]imino}-methyl)phenyl]-acrylamide] | 600 to 800 nM | 800 ± 90 nM | 1700 ± 100 nM | 1700 ± 100 nM | – | – | – | – |
| O=C(/C=C/c1ccc(C=NOCCN2CCOCC2)cc1)NO [ST3050, (2E)-N-hydroxy-3-{4-[(2-morpholin-4-ylethoxyimino)methyl]-phenyl}-acryl-amide] | 1400 to 2900 nM | 1700 ± 200 nM | 2900 ± 400 nM | 1800 ± 100 nM | – | – | – | – |
| Nc1ccccc1NC(=O)/C=C/c1ccc(C=NOCc2ccc([N+](=O)[O-])cc2)cc1 [ST3070, (2E)-N-(2-aminophenyl)-3-[4-({[(4-nitrobenzyl)oxy]imino}-methyl)phenyl]-acrylamide] | > 20000 nM | – | 200000 nM | 33400 ± 3900 nM | – | – | – | – |
| O=C(O)/C=C/c1ccc(C=NOCc2ccc([N+](=O)[O-])cc2)cc1 [ST3075, (2E)-3-[4-({[(4-nitrobenzyl)oxy]imino}-methyl)phenyl]acrylic acid] | > 20000 nM | – | 21300 ± 3000 nM | > 20000 nM | – | – | – | – |
| O=C(O)/C=C/c1ccc(C=NOCc2ccccc2)cc1 [ST3076, (2E)-3-(4-{[(benzyloxy)imino]methyl}phenyl)acrylic acid] | > 20000 nM | – | – | > 20000 nM | – | – | – | – |
| O=C(CCc1ccc(C=NOCc2ccc([N+](=O)[O-])cc2)cc1)NO [ST3330, N-hydroxy-3-[4-({[(4-nitrobenzyl)oxy]imino}methyl)phenyl]propanamide] | 950 ± 60 nM | – | 7700 ± 1000 nM | 3100 ± 100 nM | minor cytotoxic effect | – | – | – |
| Nc1ccccc1NC(=O)/C=C/c1ccc(C=NOCCN2CCOCC2)cc1 [ST3573, (2E)-N-(2-Amino-phenyl)-3-{4-[(2-morpholin-4-yl-ethoxyimino)methyl]-phenyl}-acrylamide hydrochloride] | 8870 ± 600 nM | – | > 20000 nM | > 20000 nM | – | – | – | – |
| Cl.O=C(/C=C/c1cccc(C=NOCCN2CCOCC2)c1)NO [ST3576, (2E)-N-hydroxy-3-{3-[(2-morpholin-4-ylethoxyimino)methyl]-phenyl}-acryl-amide hydrochloride] | 1400 to 2900 nM | – | 6600 ± 800 nM | 4000 ± 500 nM | minor cytotoxic effect | – | – | 1890 ± 80 nM |
